Test results taken from the NIST ThermoML archive (doi:10.1016/j.fluid.2017.07.002).
Values joined by “and” are separate entries in the source; they are usually repeats but may differ in a detail not shown here. Equal values may be shown once. Numbers after ± are expanded uncertainties.

Conditions: Liquid, Closed cell (Static) method

Compound: C=C(F)C(F)(F)F [2,3,3,3-tetrafluoro-1-propene]
- vapor or sublimation pressure (193.26 K): 5.46 ± 0.38 kPa
- vapor or sublimation pressure (193.3 K): 5.69 ± 0.38 kPa
- vapor or sublimation pressure (223 K): 37.74 ± 0.42 kPa
- vapor or sublimation pressure (223.08 K): 37.41 ± 1.1 kPa
- vapor or sublimation pressure (223.11 K): 37.48 ± 1.1 kPa
- vapor or sublimation pressure (233.02 K): 61.64 ± 0.61 kPa
- vapor or sublimation pressure (233.04 K): 62.24 ± 1.3 kPa
- vapor or sublimation pressure (272.69 K): 310.8 ± 1.5 kPa
- vapor or sublimation pressure (272.75 K): 310.85 ± 1.5 kPa and 310.76 ± 1.5 kPa
- vapor or sublimation pressure (272.78 K): 311.18 ± 1.5 kPa
- vapor or sublimation pressure (272.8 K): 311.8 ± 1.5 kPa
- vapor or sublimation pressure (272.81 K): 311.46 ± 1.5 kPa

Compound: CC [ethane]
- vapor or sublimation pressure (173.63 K): 53.57 ± 0.85 kPa
- vapor or sublimation pressure (177.24 K): 66.42 ± 1.1 kPa
- vapor or sublimation pressure (183.28 K): 94.31 ± 1.1 kPa
- vapor or sublimation pressure (228.82 K): 673.93 ± 3.5 kPa

Compound: FC(F)(F)C(F)(F)C(F)(F)F [octafluoropropane]
- vapor or sublimation pressure (223.21 K): 53.1 ± 1.9 kPa
- vapor or sublimation pressure (272.76 K): 408.18 ± 2 kPa

Compound: FC(F)(F)F [tetrafluoromethane]
- vapor or sublimation pressure (153.23 K): 171.92 ± 5.7 kPa
- vapor or sublimation pressure (193.43 K): 1205.3 ± 6.8 kPa

Compound: FC(F)F [trifluoromethane]
- vapor or sublimation pressure (173.86 K): 34.35 ± 0.58 kPa
- vapor or sublimation pressure (177.11 K): 41.46 ± 0.77 kPa
- vapor or sublimation pressure (183.19 K): 62.33 ± 0.9 kPa
- vapor or sublimation pressure (183.2 K): 62.29 ± 0.92 kPa
- vapor or sublimation pressure (193.19 K): 113.55 ± 3.3 kPa
- vapor or sublimation pressure (228.83 K): 600.35 ± 3.2 kPa
- vapor or sublimation pressure (233.16 K): 707.03 ± 6.9 kPa
- vapor or sublimation pressure (273.25 K): 2502.8 ± 13 kPa
